Test results from patent US20020048549A1, “Radioactive transition metal nitride heterocomplex” (priority 1996, published 2002).
Read-outs that look alike come from different tables or passages of the source.

Experiment: Biodistribution of 99mTc(N)(X)(DTC)+ heterocomplexes in rats
Assay type: in vivo, male Spraque-Dawley rats (SD rats)
Description: The biodistribution of a ^99mTc nitride heterocomplex represented by the general formula ^99mTc(N)(X)(Y) was investigated as follows: ^99mTc nitride heterocomplexes were synthesized using DTC as a bidentate ligand Y and each of the diphosphine compounds X described below, and the biodistribution in rats of each heterocomplex was investigated.
Before being injected into rats, the contents of the vial were diluted with phosphate buffer (0.1 mol/dm^3, pH=7.06) containing 10% Tween 80 ([…]). The complexes were stable in the solutions and in human plasma for at least 6 hours.
The biodistribution was measured using male Spraque-Dawley rats (SD rats) weighing 200 to 250 g. After 24 hours fasting, the rats were put under intraperitoneal anesthesia and given an injection in the jugular vein. Then, the organs were excised from the rats at different intervals of time, washed and then weighed. In addition, blood samples were collected and then weighed. The data on the biodistribution are expressed as the mean±significant difference of the percentage of radioactivity level per gram of the organ weight based on the dose of radioactivity, (% dose/g). The measurement was carried out using groups of 5 rats each.

Question: With `COCCC[P]1(CCCOC)CCN(CCOC)CC[P](CCCOC)(CCCOC)[99Tc+]12(#[N])[NH]N(C)C(SC)=[S]2` [^99mTc(N)(PNP3)(DTC)^+] as the compound, how does the Bone % dose/g read?
Answer: The Bone % dose/g was 0.198 ± 0.03 % dose/g.

Question: What about the Heart % dose/g of the same compound?
Answer: The Heart % dose/g was 2.704 ± 0.03 % dose/g.

Question: What about the Liver % dose/g of the same compound?
Answer: The Liver % dose/g was 1.5 ± 0.02 % dose/g.

Question: What about the Spleen % dose/g of the same compound?
Answer: The Spleen % dose/g was 1.686 ± 0.03 % dose/g.

Question: And the Blood % dose/g (0 min after injection)?
Answer: The Blood % dose/g was 1.149 ± 0.04 % dose/g.

Question: And the Brain % dose/g (0 min after injection)?
Answer: Its Brain % dose/g is 0.096 ± 0.00 % dose/g.

Question: And the Intestine % dose/g (0 min after injection)?
Answer: Its Intestine % dose/g is 2.578 ± 0.350 % dose/g.

Question: And the Kidney % dose/g (0 min after injection)?
Answer: Its Kidney % dose/g is 8.289 ± 0.03 % dose/g.

Question: What about the Lung % dose/g (0 min after injection) of the same compound?
Answer: The Lung % dose/g was 2.133 ± 0.03 % dose/g.

Question: And the Muscle % dose/g (0 min after injection)?
Answer: The Muscle % dose/g was 0.232 ± 0.07 % dose/g.

Question: What about the Stomach % dose/g (0 min after injection) of the same compound?
Answer: The Stomach % dose/g was 1.121 ± 0.01 % dose/g.

Question: What about the Blood % dose/g (2 min after injection) of the same compound?
Answer: The Blood % dose/g was 0.421 ± 0.10 % dose/g.

Question: What about the Bone % dose/g (2 min after injection) of the same compound?
Answer: Its Bone % dose/g is 2.242 ± 0.02 % dose/g.

Question: What about the Brain % dose/g (2 min after injection) of the same compound?
Answer: The Brain % dose/g was 0.035 ± 0.01 % dose/g.

Question: And the Heart % dose/g (2 min after injection)?
Answer: The Heart % dose/g was 3.007 ± 0.16 % dose/g.

Question: And the Intestine % dose/g (2 min after injection)?
Answer: Its Intestine % dose/g is 4.188 ± 0.60 % dose/g.

Question: And the Kidney % dose/g (2 min after injection)?
Answer: Its Kidney % dose/g is 9.676 ± 0.620 % dose/g.

Question: What about the Liver % dose/g (2 min after injection) of the same compound?
Answer: Its Liver % dose/g is 2.778 ± 0.06 % dose/g.

Question: What about the Lung % dose/g (2 min after injection) of the same compound?
Answer: The Lung % dose/g was 0.995 ± 0.17 % dose/g.

Question: And the Muscle % dose/g (2 min after injection)?
Answer: Its Muscle % dose/g is 0.264 ± 0.09 % dose/g.

Question: And the Spleen % dose/g (2 min after injection)?
Answer: The Spleen % dose/g was 1.215 ± 0.1 % dose/g.

Question: And the Stomach % dose/g (2 min after injection)?
Answer: Its Stomach % dose/g is 0.740 ± 0.02 % dose/g.

Question: And the Blood % dose/g (10 min after injection)?
Answer: The Blood % dose/g was 0.147 ± 0.02 % dose/g.

Question: What about the Bone % dose/g (10 min after injection) of the same compound?
Answer: Its Bone % dose/g is 0.204 ± 0.00 % dose/g.

Question: And the Brain % dose/g (10 min after injection)?
Answer: Its Brain % dose/g is 0.019 ± 0.00 % dose/g.

Question: And the Heart % dose/g (10 min after injection)?
Answer: Its Heart % dose/g is 2.506 ± 0.10 % dose/g.

Question: And the Intestine % dose/g (10 min after injection)?
Answer: Its Intestine % dose/g is 10.959 ± 1.64 % dose/g.

Question: What about the Kidney % dose/g (10 min after injection) of the same compound?
Answer: Its Kidney % dose/g is 6.559 ± 0.928 % dose/g.

Question: What about the Liver % dose/g (10 min after injection) of the same compound?
Answer: Its Liver % dose/g is 1.719 ± 0.14 % dose/g.

Question: What about the Lung % dose/g (10 min after injection) of the same compound?
Answer: The Lung % dose/g was 0.725 ± 0.104 % dose/g.

Question: What about the Muscle % dose/g (10 min after injection) of the same compound?
Answer: The Muscle % dose/g was 0.252 ± 0.01 % dose/g.

Question: What about the Spleen % dose/g (10 min after injection) of the same compound?
Answer: Its Spleen % dose/g is 0.856 ± 0.12 % dose/g.

Question: What about the Stomach % dose/g (10 min after injection) of the same compound?
Answer: The Stomach % dose/g was 0.852 ± 0.118 % dose/g.

Question: And the Blood % dose/g (30 min after injection)?
Answer: The Blood % dose/g was 0.098 ± 0.01 % dose/g.

Question: What about the Bone % dose/g (30 min after injection) of the same compound?
Answer: The Bone % dose/g was 0.230 ± 0.04 % dose/g.

Question: What about the Brain % dose/g (30 min after injection) of the same compound?
Answer: The Brain % dose/g was 0.012 ± 0.00 % dose/g.

Question: What about the Heart % dose/g (30 min after injection) of the same compound?
Answer: The Heart % dose/g was 2.551 ± 0.10 % dose/g.

Question: What about the Intestine % dose/g (30 min after injection) of the same compound?
Answer: Its Intestine % dose/g is 10.201 ± 1.28 % dose/g.

Question: And the Kidney % dose/g (30 min after injection)?
Answer: The Kidney % dose/g was 5.354 ± 1.00 % dose/g.

Question: What about the Liver % dose/g (30 min after injection) of the same compound?
Answer: The Liver % dose/g was 0.732 ± 0.08 % dose/g.

Question: What about the Lung % dose/g (30 min after injection) of the same compound?
Answer: Its Lung % dose/g is 0.446 ± 0.00 % dose/g.

Question: What about the Muscle % dose/g (30 min after injection) of the same compound?
Answer: The Muscle % dose/g was 0.273 ± 0.05 % dose/g.

Question: What about the Spleen % dose/g (30 min after injection) of the same compound?
Answer: The Spleen % dose/g was 0.550 ± 0.06 % dose/g.

Question: What about the Stomach % dose/g (30 min after injection) of the same compound?
Answer: The Stomach % dose/g was 1.511 ± 0.39 % dose/g.

Question: And the Blood % dose/g (1 hr after injection)?
Answer: The Blood % dose/g was 0.071 ± 0.00 % dose/g.

Question: And the Bone % dose/g (1 hr after injection)?
Answer: Its Bone % dose/g is 0.099 ± 0.00 % dose/g.

Question: What about the Brain % dose/g (1 hr after injection) of the same compound?
Answer: Its Brain % dose/g is 0.014 ± 0.00 % dose/g.

Question: What about the Heart % dose/g (1 hr after injection) of the same compound?
Answer: Its Heart % dose/g is 2.155 ± 0.29 % dose/g.

Question: What about the Intestine % dose/g (1 hr after injection) of the same compound?
Answer: The Intestine % dose/g was 5.447 ± 0.87 % dose/g.

Question: And the Kidney % dose/g (1 hr after injection)?
Answer: The Kidney % dose/g was 4.127 ± 0.178 % dose/g.

Question: What about the Liver % dose/g (1 hr after injection) of the same compound?
Answer: The Liver % dose/g was 0.500 ± 0.01 % dose/g.

Question: What about the Lung % dose/g (1 hr after injection) of the same compound?
Answer: Its Lung % dose/g is 0.329 ± 0.05 % dose/g.

Question: And the Muscle % dose/g (1 hr after injection)?
Answer: The Muscle % dose/g was 0.236 ± 0.04 % dose/g.

Question: What about the Spleen % dose/g (1 hr after injection) of the same compound?
Answer: Its Spleen % dose/g is 0.238 ± 0.02 % dose/g.

Question: And the Stomach % dose/g (1 hr after injection)?
Answer: The Stomach % dose/g was 0.892 ± 0.085 % dose/g.

Question: And the Blood % dose/g (2 hr after injection)?
Answer: The Blood % dose/g was 0.049 ± 0.00 % dose/g.

Question: What about the Bone % dose/g (2 hr after injection) of the same compound?
Answer: The Bone % dose/g was 0.121 ± 0.00 % dose/g.

Question: And the Brain % dose/g (2 hr after injection)?
Answer: Its Brain % dose/g is 0.009 ± 0.00 % dose/g.

Question: And the Heart % dose/g (2 hr after injection)?
Answer: Its Heart % dose/g is 2.721 ± 0.06 % dose/g.

Question: What about the Intestine % dose/g (2 hr after injection) of the same compound?
Answer: Its Intestine % dose/g is 2.720 ± 0.11 % dose/g.

Question: And the Kidney % dose/g (2 hr after injection)?
Answer: The Kidney % dose/g was 3.139 ± 0.20 % dose/g.

Question: And the Liver % dose/g (2 hr after injection)?
Answer: Its Liver % dose/g is 0.164 ± 0.04 % dose/g.

Question: What about the Lung % dose/g (2 hr after injection) of the same compound?
Answer: Its Lung % dose/g is 0.312 ± 0.2 % dose/g.

Question: And the Muscle % dose/g (2 hr after injection)?
Answer: Its Muscle % dose/g is 0.268 ± 0.88 % dose/g.

Question: And the Spleen % dose/g (2 hr after injection)?
Answer: Its Spleen % dose/g is 0.300 ± 0.05 % dose/g.

Question: And the Stomach % dose/g (2 hr after injection)?
Answer: The Stomach % dose/g was 1.521 ± 0.50 % dose/g.

Question: And the Blood % dose/g (4 hr after injection)?
Answer: The Blood % dose/g was 0.030 ± 0.00 % dose/g.

Question: What about the Bone % dose/g (4 hr after injection) of the same compound?
Answer: The Bone % dose/g was 0.079 ± 0.01 % dose/g.

Question: And the Brain % dose/g (4 hr after injection)?
Answer: Its Brain % dose/g is 0.009 ± 0.00 % dose/g.

Question: And the Heart % dose/g (4 hr after injection)?
Answer: The Heart % dose/g was 2.503 ± 0.13 % dose/g.

Question: What about the Intestine % dose/g (4 hr after injection) of the same compound?
Answer: The Intestine % dose/g was 1.810 ± 0.716 % dose/g.

Question: What about the Kidney % dose/g (4 hr after injection) of the same compound?
Answer: Its Kidney % dose/g is 2.536 ± 0.12 % dose/g.

Question: What about the Liver % dose/g (4 hr after injection) of the same compound?
Answer: Its Liver % dose/g is 0.155 ± 0.00 % dose/g.

Question: And the Lung % dose/g (4 hr after injection)?
Answer: The Lung % dose/g was 0.219 ± 0.01 % dose/g.

Question: What about the Muscle % dose/g (4 hr after injection) of the same compound?
Answer: Its Muscle % dose/g is 0.245 ± 0.031 % dose/g.

Question: What about the Spleen % dose/g (4 hr after injection) of the same compound?
Answer: The Spleen % dose/g was 0.195 ± 0.02 % dose/g.

Question: And the Stomach % dose/g (4 hr after injection)?
Answer: The Stomach % dose/g was 0.485 ± 0.07 % dose/g.

Question: What about the “elimination from kidney and liver” value (rats) of the same compound?
Answer: Its value is “relatively rapidly eliminated”.

Question: And the “washout from lung and blood” value (rats)?
Answer: The value was “rapidly washed out”.

Question: And the accumulation in heart (rats, throughout the measurement)?
Answer: Its accumulation in heart is “very large amount”.
